In the assay the target is Solute carrier family 2, facilitated glucose transporter member 1 (Homo sapiens) (UniProt P11166). In words: SLC2A1-mediated glucose transport in cells – cell-based, flow cytometry, glucose FRET sensor, HEK293 JumpIN TRex, wild type, dose response (AID 1794830). The note with it: HEK293 JumpIN SLC2A1-OE. Background: In flow cytometry, cells or beads pass a laser one at a time.

The record followed here is PubChem BioAssay AID1794830.

Inconclusive results are not listed.

Chain of Solute carrier family 2, facilitated glucose transporter member 1 (Homo sapiens) (P11166 whole entry, looked up): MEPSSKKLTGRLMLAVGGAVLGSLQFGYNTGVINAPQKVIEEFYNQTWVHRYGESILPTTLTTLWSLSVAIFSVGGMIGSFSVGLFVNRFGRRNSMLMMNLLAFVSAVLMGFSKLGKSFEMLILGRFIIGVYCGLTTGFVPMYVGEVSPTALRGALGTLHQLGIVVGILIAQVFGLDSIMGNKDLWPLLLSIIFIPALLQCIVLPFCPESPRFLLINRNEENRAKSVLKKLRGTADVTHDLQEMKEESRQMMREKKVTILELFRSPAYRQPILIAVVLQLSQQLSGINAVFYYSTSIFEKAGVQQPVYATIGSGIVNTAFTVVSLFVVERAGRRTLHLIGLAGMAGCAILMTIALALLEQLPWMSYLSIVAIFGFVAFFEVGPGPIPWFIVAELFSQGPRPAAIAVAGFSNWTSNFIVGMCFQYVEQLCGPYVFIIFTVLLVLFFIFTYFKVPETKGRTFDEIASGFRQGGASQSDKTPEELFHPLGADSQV

For `OC[C@H]1OC(O)[C@H](O)[C@@H](O)[C@@H]1O` (stereo partly specified), the EC50 (substrate transport, FRET signal increase) was 527 µM.
